Among the test systems are 786-0; CCRF-CEM; HOP-62; IGROV-1; KM12; LOX IMVI; OVCAR-3; RPMI-8226; RXF 393; SF-295; SK-MEL-28; SK-MEL-5; SN12C; SNB-75; UACC-62; HCC 2998; NCI-H460; OVCAR-5; TK-10.
What all share (assay): growth of human tumour cells (NCI), 48 h

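Following 48 hours of exposure in 96-well plates, responses at five concentrations were used to interpolate endpoints linearly. The concentration for 50% growth inhibition is given as GI50.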 Active and inactive are the calls of the source. Rule as the data show it: active = GI50 up to about 1.1 µM and inactive = higher.

Consider `O=C1CCC2(c3ccc(Cl)cc3)Nc3cc(Cl)ccc3N12` (centres undefined), for which the GI50 was 10.2 µM (inactive) in the test with 786-0; 2.42 µM (inactive) with CCRF-CEM; 15.5 µM (inactive) in the test with HOP-62; 13.6 µM (inactive) in the test with IGROV-1; 12 µM (inactive) in the test on KM12; 12.1 µM (inactive) with LOX IMVI. Also, the GI50 with OVCAR-3 is 10.4 µM (inactive); with RPMI-8226 it was 16.4 µM (inactive); in the test on RXF 393, 11.9 µM (inactive); in the test on SF-295, 9.04 µM (inactive); in the test with SK-MEL-28, 12.4 µM (inactive); in the test with SK-MEL-5 it was 12.4 µM (inactive). The GI50 in the test with SN12C was 15.3 µM (inactive); with SNB-75 it was 12.2 µM (inactive); in the test on UACC-62 it was 8.97 µM (inactive).

For `C=C1C(C)C2C(Cc3ccccc3)NC(=O)C23OC(=O)/C=C\CC(=O)CCC(C)C/C=C/C3C1O` (centres undefined), the GI50 in the test on 786-0 is 0.438 µM (active); in the test with HCC 2998, 6.19 µM (inactive); in the test on HOP-62 it was 2 µM (inactive); in the test with IGROV-1, 3.42 µM (inactive); in the test with KM12, 2.88 µM (inactive); with LOX IMVI it was 0.875 µM (active). Besides, the GI50 in the test with NCI-H460 is 5.85 µM (inactive); with OVCAR-3, 1.82 µM (inactive); with OVCAR-5, 8.69 µM (inactive); with RXF 393, 0.43 µM (active); in the test on SF-295, 2.54 µM (inactive); in the test on SK-MEL-28 it was 1.39 µM (inactive). Also, the GI50 with SK-MEL-5 was 3.71 µM (inactive); with SN12C it was 1.93 µM (inactive); in the test on SNB-75 it was 0.413 µM (active); with TK-10, 0.0834 µM (active); in the test on UACC-62, 2.45 µM (inactive).

With `COC(=O)c1ccc(Cl)cc1NC(=O)C1CCCCC1`, the GI50 with 786-0, with HCC 2998, with KM12, in the test on OVCAR-3, in the test on OVCAR-5 and in the test with RPMI-8226 was > 100 µM (inactive) throughout. Further, the GI50 was 20.3 µM (inactive) with RXF 393; > 100 µM (inactive) in the test on SF-295; > 100 µM (inactive) in the test on SK-MEL-28; > 100 µM (inactive) with SN12C; 40 µM (inactive) in the test with TK-10.

Turning to `CN(C)CCCc1c2ccccc2nc2ccc(Cl)cc12`, the GI50 with 786-0 is 11.7 µM (inactive); with CCRF-CEM it was 9.16 µM (inactive); in the test with HOP-62, 14.5 µM (inactive); with IGROV-1, 16.4 µM (inactive); with KM12, 17.9 µM (inactive); in the test on LOX IMVI, 14.2 µM (inactive). Further, the GI50 in the test with NCI-H460 was 12.1 µM (inactive); in the test with OVCAR-3 it was 24.8 µM (inactive); in the test with OVCAR-5, 15.2 µM (inactive); in the test on RPMI-8226, 21.3 µM (inactive); in the test on RXF 393 it was 14.1 µM (inactive); in the test on SF-295 it was 16.2 µM (inactive). Besides, the GI50 was 18.3 µM (inactive) with SK-MEL-28; 14.4 µM (inactive) in the test on SK-MEL-5; 10.3 µM (inactive) in the test with SN12C; 15.5 µM (inactive) with SNB-75; 13.9 µM (inactive) in the test on TK-10; 18 µM (inactive) in the test with UACC-62.

As for `CC(=O)n1c2ccccc2c2nc3nc(Oc4ccc(C)cc4)c4ccccc4c3cc21`, the GI50 in the test on 786-0 is 65.8 µM (inactive); in the test with CCRF-CEM, > 100 µM (inactive); in the test on HCC 2998, > 100 µM (inactive); with HOP-62, 57 µM (inactive); in the test on IGROV-1, > 100 µM (inactive); with KM12 it was > 100 µM (inactive). Moreover, the GI50 is > 100 µM (inactive) in the test with LOX IMVI; > 100 µM (inactive) with NCI-H460; > 100 µM (inactive) in the test on OVCAR-3; > 100 µM (inactive) with OVCAR-5; > 100 µM (inactive) in the test on RPMI-8226; 66.2 µM (inactive) in the test with SF-295. Moreover, the GI50 in the test on SK-MEL-28 was > 100 µM (inactive); with SK-MEL-5, > 100 µM (inactive); in the test with SN12C it was > 100 µM (inactive); with SNB-75, 44.2 µM (inactive); in the test with UACC-62 it was > 100 µM (inactive).

Consider `C1C[N+]23CCC[N+]2(C1)CCC3` (centres undefined), for which the GI50 in the test on 786-0 is > 100 µM (inactive); with CCRF-CEM, 31.6 µM (inactive); with HCC 2998, > 100 µM (inactive); in the test with HOP-62, > 100 µM (inactive); in the test on IGROV-1, > 100 µM (inactive); in the test with KM12, > 100 µM (inactive). In addition, the GI50 in the test with LOX IMVI, in the test on NCI-H460, in the test with OVCAR-3, in the test on OVCAR-5, in the test with RXF 393 and with SF-295 was > 100 µM (inactive) in each case. For the same compound, the GI50 with SK-MEL-28 is > 100 µM (inactive); with SK-MEL-5, > 100 µM (inactive); in the test with SN12C, > 100 µM (inactive); in the test on SNB-75, 97.5 µM (inactive); in the test with TK-10 it was > 100 µM (inactive); in the test with UACC-62, > 100 µM (inactive).

For `NS(=O)(=O)c1ccc(NC(=O)c2cccc3c(Nc4ccc(S(N)(=O)=O)cc4)c4ccccc4nc23)cc1`, the GI50 in the test on 786-0 was 25.3 µM (inactive); in the test on CCRF-CEM it was 6.18 µM (inactive); in the test with HOP-62, > 100 µM (inactive); in the test on IGROV-1 it was > 100 µM (inactive); in the test with KM12, 4.47 µM (inactive); in the test on LOX IMVI, 5.55 µM (inactive). Besides, the GI50 was > 100 µM (inactive) with NCI-H460; 13.6 µM (inactive) in the test on OVCAR-3; > 100 µM (inactive) in the test with OVCAR-5; 9.25 µM (inactive) with RPMI-8226; 52.5 µM (inactive) in the test on RXF 393; 31.6 µM (inactive) in the test on SF-295. In addition, the GI50 in the test with SK-MEL-28 was > 100 µM (inactive); in the test on SK-MEL-5 it was 41.2 µM (inactive); with SN12C, 31.8 µM (inactive); with SNB-75 it was 14.3 µM (inactive); in the test with TK-10, > 100 µM (inactive); with UACC-62, 31.8 µM (inactive).

As to `Cc1nn(C(=O)CC(=O)Nc2ccc(Cl)cc2)c(C)c1/N=N/c1ccccc1C(=O)O`, the GI50 with 786-0, with CCRF-CEM, with HCC 2998, with HOP-62, in the test with IGROV-1 and with KM12 was > 100 µM (inactive) throughout. The GI50 in the test with LOX IMVI, in the test on NCI-H460, with OVCAR-3, with OVCAR-5, in the test with RPMI-8226 and in the test on SF-295 was > 100 µM (inactive) each time. For the same compound, the GI50 in the test on SK-MEL-28 was > 100 µM (inactive); in the test with SK-MEL-5, > 100 µM (inactive); with SN12C it was > 100 µM (inactive); in the test on SNB-75, 39.5 µM (inactive); in the test with TK-10, > 100 µM (inactive); in the test on UACC-62, > 100 µM (inactive).

For the compound `CC(=O)NCCSC(=O)c1ccccc1`, the GI50 in the test with 786-0 is 0.0506 µM (active); in the test on CCRF-CEM, < 0.0153 µM (active); in the test on HOP-62 it was 0.148 µM (active); with IGROV-1, 1.69 µM (inactive); in the test with KM12, 0.449 µM (active); with LOX IMVI, 0.124 µM (active). The GI50 in the test with NCI-H460 is < 0.033 µM (active); in the test on OVCAR-3, 0.243 µM (active); with OVCAR-5 it was 0.141 µM (active); in the test on RPMI-8226 it was 0.131 µM (active); in the test on RXF 393, 0.112 µM (active); in the test with SF-295, 0.147 µM (active). In addition, the GI50 with SK-MEL-28 is 0.268 µM (active); in the test with SK-MEL-5, 0.0171 µM (active); with SN12C it was 0.0853 µM (active); in the test with SNB-75, 0.741 µM (active); with TK-10, 0.126 µM (active); in the test with UACC-62 it was 0.013 µM (active).

With `Nc1nc(N)c(-c2ccc(Cl)cc2)c(CCC(=O)Nc2cccc(C(F)(F)F)c2)n1`, the GI50 in the test with 786-0, in the test with CCRF-CEM, in the test on HCC 2998, with HOP-62, with IGROV-1 and with KM12 was > 100 µM (inactive) each time. In addition, the GI50 in the test with LOX IMVI, in the test on NCI-H460, in the test with OVCAR-3, with OVCAR-5, in the test with RXF 393 and with SF-295 was > 100 µM (inactive) in each case. For the same compound, the GI50 in the test with SK-MEL-28, in the test with SK-MEL-5, in the test with SN12C, in the test on SNB-75, with TK-10 and in the test with UACC-62 was > 100 µM (inactive) each time.

Turning to `Cc1ccc(C)c(N2C(=O)C(=O)C(c3nc4ccccc4s3)/C(=N\c3cccc4c(=O)[nH][nH]c(=O)c34)C2=O)c1` (centres undefined), the GI50 with 786-0, in the test with CCRF-CEM, in the test on HCC 2998, with HOP-62, with IGROV-1 and in the test on KM12 was > 100 µM (inactive) throughout. Moreover, the GI50 in the test with LOX IMVI, in the test on NCI-H460, with OVCAR-3, in the test with OVCAR-5, in the test on RPMI-8226 and with SF-295 was > 100 µM (inactive) throughout. For the same compound, the GI50 in the test with SK-MEL-28 was > 100 µM (inactive); in the test with SK-MEL-5, > 100 µM (inactive); in the test with SN12C it was > 100 µM (inactive); in the test on SNB-75, 97.9 µM (inactive); with TK-10 it was > 100 µM (inactive); in the test with UACC-62, > 100 µM (inactive).

For `CCCCNC(=O)CCN(C(=O)O)S(=O)(=O)c1ccc(NC(=O)c2ccccc2)cc1`, the GI50 in the test on 786-0 was 11.9 µM (inactive); in the test on CCRF-CEM it was > 100 µM (inactive); in the test with HCC 2998 it was > 100 µM (inactive); in the test on HOP-62, > 100 µM (inactive); in the test on IGROV-1, > 100 µM (inactive); with KM12, > 100 µM (inactive). In addition, the GI50 is 18.8 µM (inactive) in the test on LOX IMVI; > 100 µM (inactive) in the test on NCI-H460; > 100 µM (inactive) in the test with OVCAR-3; > 100 µM (inactive) in the test on OVCAR-5; > 100 µM (inactive) in the test on RPMI-8226; > 100 µM (inactive) in the test with SF-295. Besides, the GI50 with SK-MEL-28, in the test with SK-MEL-5, in the test on SN12C, in the test with SNB-75, with TK-10 and in the test on UACC-62 was > 100 µM (inactive) throughout.

The values above are taken from ChEMBL document CHEMBL1201862, “PubChem BioAssay data set” (2004).
